The results in this text go back to US20080319065A1, “Systemic and Intrathecal Effects of a Novel Series of Phospholipase A2 Inhibitors on Hyperalgesia and Spinal Pge2 Release” (The Regents of the University of California, priority 2005, published 2008).

In test [1] the target is T1, Group IVA cPLA2 (GIVA PLA2) (Homo sapiens, UniProt P47712).
T1 sequence (P47712 1-749): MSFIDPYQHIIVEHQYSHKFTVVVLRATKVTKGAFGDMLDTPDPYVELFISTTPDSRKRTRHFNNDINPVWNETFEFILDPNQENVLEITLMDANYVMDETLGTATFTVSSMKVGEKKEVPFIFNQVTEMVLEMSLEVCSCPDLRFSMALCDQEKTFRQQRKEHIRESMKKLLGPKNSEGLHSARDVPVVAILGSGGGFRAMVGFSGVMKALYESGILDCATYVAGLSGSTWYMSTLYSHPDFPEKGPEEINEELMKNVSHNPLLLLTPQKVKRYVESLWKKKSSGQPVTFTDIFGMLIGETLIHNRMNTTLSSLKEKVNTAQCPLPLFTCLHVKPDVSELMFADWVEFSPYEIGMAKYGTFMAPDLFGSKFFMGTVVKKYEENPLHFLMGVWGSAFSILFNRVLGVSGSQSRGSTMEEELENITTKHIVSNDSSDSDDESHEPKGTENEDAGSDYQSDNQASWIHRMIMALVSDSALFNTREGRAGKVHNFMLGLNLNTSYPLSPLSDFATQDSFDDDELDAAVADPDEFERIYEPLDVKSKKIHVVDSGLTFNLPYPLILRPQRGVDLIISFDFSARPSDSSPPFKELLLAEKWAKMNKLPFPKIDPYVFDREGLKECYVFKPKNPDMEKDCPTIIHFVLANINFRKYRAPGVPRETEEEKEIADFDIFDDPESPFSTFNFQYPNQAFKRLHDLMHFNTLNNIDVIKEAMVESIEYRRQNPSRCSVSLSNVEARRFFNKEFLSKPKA
The test is described as follows: In vitro Group IVA cPLA2 mixed micelle assay. Type of test: biochemical.

The subject of test [2] is spinal release of PGE2. The experiment in a line: Intrathecal dialysis and PGE2 assay. The class given is in vivo, rat. The note with it: 3 mg/kg IP pretreatment. An excerpt:
For spinal drug injections, lumbar catheters were implanted in rats under isoflurane anesthesia according to a modification of the procedure described by Yaksh (Yaksh and Rudy, supra, 1976). A polyethylene catheter (PE-5; Spectranetics, 0.014 in OD) was inserted into the intrathecal space and advanced to the rostral edge of the lumbar enlargement through an incision in the atlanto-occipital membrane. Five days after implantation rats were entered into the study. In separate experiments to assess spinal prostaglandins release, rats were prepared with lumbar loop dialysis catheters with three lumens, as previously described, see (Yaksh, et al., supra, 2001).
In brief, the outer two lumens were connected to a length of dialysis tubing (10 Kda cut off). The catheter was then implanted intrathecally using the same technique as described above for the intrathecal catheter. A three-day interval was allowed to elapse prior to including the animal in a study. In all cases, the exclusion criteria were i) presence of any neurological sequelae, ii) 20% weight loss after implantation, or iii) catheter occlusion.
Spinal dialysis experiments to define the spinal release of PGE2 were conducted in unanesthetized rats 3 days after dialysis catheter implantation. A syringe pump (Harvard, Natick, Mass.) was connected and dialysis tubing was perfused with artificial cerebro spinal fluid (ACSF) at a rate of 10 μl/min. The ACSF contained (mM) 151.1 Na^+, 2.6 K^+, 0.9 Mg^2+, 1.3 Ca^2+, 122.7 Cl^−, 21.0 HCO3, 2.5 HPO4 and 3.5 dextrose and was bubbled with 95% O2/5% CO2 before each experiment to adjust the final pH to 7.2. The efflux (20 min per fraction) was collected in an automatic fraction collector (Eicom, Kyoto, Japan) at 4° C. […] The concentration of PGE2 in spinal dialysate was measured by ELISA using a commercially available kit (Assay Designs 90001, Assay Designs, Ann Arbor, Mich.). The antibody is selective for PGE2 with less than 2.0% cross-reactivity to PGF1, PGF2, 6-ketoPGF1, PGA2 or PGB2, but cross-reacts with PGE1 and PGE3.

Structures are written as SMILES.

As for `CCC(=O)C(=O)NCCCC(=O)OC` [AX010], in test [1], the “inhibition of GIVA PLA2 (cPLA2), in words” value is given as “does not significantly inhibit GIVA PLA2”. Further, in test [1] (at 0.091 mole fraction), the “Group IVA XI(50), class” value was “N.D. (25% inhibition or less at 0.091 mole fraction)”. Besides, in test [1] (at highest dose), the “Inhibition of GIVA PLA2” value is given as “ND (negligible inhibition (0-25%) at highest dose)”. In addition, the “IT SP-evoked release of PGE2 in spinal dialysate” value in test [2] is given as “significant increase as compared to vehicle only”.
Regarding `CCCCCCCCCCCCCCC(=O)C(=O)NCCCC(=O)OCC` [AX048, Ethyl 4-[(2-oxohexadecanoyl)amino]butanoate], the “Group IVA XI(50) (mole fraction)” value in test [1] (Table 1b) turned out to be 0.022 ± 0.009 mole fraction. In test [2], the “IT SP-evoked release of PGE2 in spinal dialysate” value is “significant inhibitory effect upon PGE2 synthesis and release”.
